Read-outs that look alike come from different tables or passages of the source.
Columns and labels:
[1] = system: HSV-2; assay: Inhibition of Herpes Simplex Virus (HSV-2) replication in cell culture; assay type: cell-based
Description: Inhibition of Herpes Simplex Virus (HSV-2) Replication in Cell Culture
BHK-21/C13 cells (ATCC CCL 10) are incubated for two days in 150 cm^2 T-flasks (1.5 x 10^6 cells/flask) with alpha-MEM medium (Gibco Canada Inc., Burlington, Ontario, Canada) supplemented with 8% (v/v) fetal bovine serum (FBS, Gibco Canada Inc.). The cells are trypsinized and then transferred to fresh media in a 24 well plate to give 2.5 x 10^5 cells in 750 µL of media per well. The cells are incubated at 37° for a period of 6 h to allow them to adhere to the plate. Thereafter, the cells are washed once with 500 µL of alpha-MEM supplemented with 0.5% (v/v) FBS and then incubated with 750 µL of the same media (low serum) for 3 days. After this period of serum starvation, the low serum medium is removed and the cells are incubated in 500 µL of BBMT for 2 to 3 hours. {BBMT medium is described by P. Brazeau et al., Proc. Natl. Acad. Sci. USA, 79, 7909 (1982).} Thereafter, the cells are infected with HSV-2 (multiplicity of infection = 0.02 PFU/cell) in 100 µL of BBMT medium. (Note: The HSV-2 used was strain HG-52, see Y. Langelier and G. Buttin, J. Gen. Virol., 57, 21 (1981); the virus was stored at -80°.) Following 1 h of virus adsorption at 37°, the media is removed and the cells are washed with BBMT (3 X 250 µL). The cells in each well are incubated with or without (control) appropriate concentrations of the test agent dissolved in 200 µL of BBMT medium. After 29 h of incubation at 37°, the infected cells are harvested by first freezing the plate at -80°, followed by thawing. The cells in each well are scraped off the surface of the well with the help of the melting ice fragments. After complete thawing, the cell suspensions are collected and each well is rinsed with 150 µL of BBMT medium. The viral sample (suspension plus washing) is sonicated gently for 4 min at 4°. Cell debris are removed by centrifugation (1000 times gravity for 10 minutes at 4°). The supernatant is collected and stored at -80° until determination of viral titer.
Viral titration was performed by a modification of the colorimetric assay method of M. Langlois et al., Journal of Biological Standardization, 14, 201 (1986).
More specifically, in a similar manner as described above, BHK-21/C13 cells are trypsinized and transferred to fresh media in a 96 well microtiter plate to give 20,000 cells in 100 µL of media per well. The cells in the prepared plate are incubated at 37° for 2 h. During that time, the viral sample is thawed and sonicated gently for 15 seconds, and log dilutions of the sample are prepared (1/5 sequential: 50 µL of the sample plus 200 µL of BBMT medium, sequential dilutions being done with a multichannel pipette.
On completion of the above 2 hour incubation of the BHK-21/C13 cells, the media is replaced with alpha-MEM medium supplemented with 3% (v/v) FBS. The cells are now ready to be infected with the various sample dilutions of virus. Aliquots (50 µL) of the various dilutions are transferred into the appropriate wells of the plate. The resulting infected cells are incubated for 2 days at 37°. Then 50 µL of a 0.15% (v/v) solution of neutral red dye in Hank's Balanced Salt Solution (pH 7.3, Gibco Canada Inc.) is added to each well. The prepared plate is incubated for 45 min at 37°. Medium from each well is then aspirated and the cells are washed once with 200 µL of Hank's Balanced Salt Solution. […]

[2] = target: T1, HSV-1 ribonucleotide reductase (Human herpesvirus 1, UniProt P08543); assay: Inhibition of Herpes Simplex Virus (HSV-1) ribonucleotide reductase; assay type: biochemical
T1 construct: HSV-1 ribonucleotide reductase (partially purified) was obtained from quiescent BHK-21/C13 cells infected with strain F HSV-1 virus; made in house; host or cells: quiescent BHK-21/C13 cells infected with HSV-1 strain F (virus-encoded enzyme, partially purified)
T1 sequence (P08543 whole entry): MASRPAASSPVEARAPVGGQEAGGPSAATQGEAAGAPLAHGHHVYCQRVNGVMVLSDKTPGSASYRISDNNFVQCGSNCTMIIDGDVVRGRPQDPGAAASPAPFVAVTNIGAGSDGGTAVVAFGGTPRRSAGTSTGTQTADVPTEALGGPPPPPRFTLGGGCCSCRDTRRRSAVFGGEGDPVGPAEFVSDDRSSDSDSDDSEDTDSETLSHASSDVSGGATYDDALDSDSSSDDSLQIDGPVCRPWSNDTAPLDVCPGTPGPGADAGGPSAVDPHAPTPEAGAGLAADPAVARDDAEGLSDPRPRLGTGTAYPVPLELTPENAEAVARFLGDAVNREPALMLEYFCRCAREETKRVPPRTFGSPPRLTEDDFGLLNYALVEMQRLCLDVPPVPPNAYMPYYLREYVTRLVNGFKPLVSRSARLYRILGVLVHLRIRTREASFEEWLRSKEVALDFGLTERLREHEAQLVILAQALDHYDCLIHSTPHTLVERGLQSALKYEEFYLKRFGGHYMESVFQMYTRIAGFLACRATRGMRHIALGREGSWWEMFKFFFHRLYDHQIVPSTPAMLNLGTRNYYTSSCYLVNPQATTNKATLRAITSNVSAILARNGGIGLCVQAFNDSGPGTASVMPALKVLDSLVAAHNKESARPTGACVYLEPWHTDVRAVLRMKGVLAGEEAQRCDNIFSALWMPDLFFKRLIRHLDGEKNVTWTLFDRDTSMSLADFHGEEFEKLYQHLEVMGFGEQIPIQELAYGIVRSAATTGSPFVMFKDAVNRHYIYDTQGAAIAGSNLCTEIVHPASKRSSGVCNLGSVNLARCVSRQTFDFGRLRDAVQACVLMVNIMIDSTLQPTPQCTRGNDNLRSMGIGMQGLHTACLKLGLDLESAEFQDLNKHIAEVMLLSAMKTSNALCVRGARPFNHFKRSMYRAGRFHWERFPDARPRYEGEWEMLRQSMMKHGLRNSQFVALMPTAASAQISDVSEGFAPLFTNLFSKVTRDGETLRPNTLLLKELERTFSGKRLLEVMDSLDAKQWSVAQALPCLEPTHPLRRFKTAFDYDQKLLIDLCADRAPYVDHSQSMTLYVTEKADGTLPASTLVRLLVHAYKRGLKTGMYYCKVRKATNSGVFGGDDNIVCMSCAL
Text: Inhibition of Herpes Simplex Virus (HSV-1) Ribonucleotide Reductase
• a) Preparation of Enzyme HSV-1 ribonucleotide reductase (partially purified) was obtained from quiescent BHK-21/C13 cells infected with strain F HSV-1 virus at 10 plaque forming units/cell as described by E.A. Cohen et al., J. Gen. Virol., 66, 733 (1985). • b) Assay and Results for Exemplified Peptides By following the procedure described by P. Gaudreau et al., J. Biol, Chem., 262, 12413 (1987), the assay results listed in the following Table I were obtained. The assay result for each exemplified compound of formula 1 is expressed as the concentration of the compound producing 50% of the maximal inhibition (IC50) of enzyme activity. The number of units of the enzyme preparation used in each assay was constant, based on the specific activity of the enzyme preparation. The results are relative to the activity obtained in control experiments without the test compound and represent the mean of four assays that varied less than 10% with each other.

[3] = Human alphaherpesvirus 2, BHK21 (C13), 29 h, Table II, BHK-21/C13 cells, HSV-2 strain HG-52, 0.02 PFU/cell, 29 h incubation, read-out: EC50
[4] = Human alphaherpesvirus 2, Table IV, cell culture assay of example 11, read-out: EC50
[5] = Table I, partially purified enzyme from BHK-21/C13 cells infected with strain F HSV-1, mean of four assays
[6] = Human alphaherpesvirus 2, BHK21 (C13), 29 h

CCCC1(NC(=O)N[C@H](C(=O)C[C@@H](CC(=O)C(C)(C)C)C(=O)N[C@H](C(=O)NCC(C)(C)C)C2(C(=O)O)CCCC2)C(C)(C)C)CCCC1 [(1-propylcyclopentyl)aminocarbonyl-Tbg-CH2-(R)-CH(CH2C(O)CMe3)C(O)-Asp(cyPn)-NHCH2CMe3]
EC50 [1, 3]: 40 µM

C=CCC(CC=C)NC(=O)NC(C(=O)CC(CC(=O)C(C)(C)C)C(=O)NC(C(=O)NCC(C)(C)C)C1(C(=O)O)CCCC1)C(C)(C)C [(CH2=CHCH2)2-CHNHC(O) / NHCH2CMe3, (CH2=CHCH2)2-CHNHC(O)-Tbg-CH2-(R)-CH(CH2C(O)CMe3)C(O)-Asp(cyPn)-NHCH2CMe3]
IC50 ([2]; Table IV, assay of example 10): 0.37 µM
EC50 [1, 4]: 100 µM

C=CCC(CC=C)NC(=O)NC(C(=O)CC(CC(=O)C(C)(C)C)C(=O)NC(C(=O)NC(C)C(C)(C)C)C1(C(=O)O)CCCC1)C(C)(C)C [(CH2=CHCH2)2-CHNHC(O)-Tbg-CH2-(R)-CH(CH2C(O)CMe3)C(O)-Asp(cyPn)-NH-(R)-CH(Me)CMe3]
IC50 ([2]; Table IV, assay of example 10): 0.32 µM
EC50 [1, 4]: 48 µM

CCCCC(CC)NC(=O)NC(C(=O)CC(CC(=O)C(C)(C)C)C(=O)NC(C(=O)NCC(C)(C)C)C1(C(=O)O)CCCC1)C(C)(C)C [(R,S)-EtBuCH-NHC(O) / NHCH2CMe3, (R,S)-EtBuCH-NHC(O)-Tbg-CH2-(R)-CH(CH2C(O)CMe3)C(O)-Asp(cyPn)-NHCH2CMe3]
IC50 ([2]; Table IV, assay of example 10): 0.26 µM
EC50 [1, 4]: 35 µM

CCC(CC)NC(=O)NC(C(=O)CC(CC(=O)C(C)(C)C)C(=O)NC(C(=O)NC(CC(C)(C)C)C(N)=O)C1(C(=O)O)CCCC1)C(C)(C)C [Et2CHNHC(O)-Tbg-CH2-(R)-CH(CH2C(O)-CMe3)C(O)-Asp(cyPn)-γMeLeu-NH2]
IC50 [2, 5]: 0.22 µM

CCC(CC)NC(=O)NC(C(=O)CC(CC(=O)C(C)(C)C)C(=O)NC(C(=O)NC(CC(C)(C)C)C(=O)O)C1(C(=O)O)CCCC1)C(C)(C)C [Et2CHNHC(O)-Tbg-CH2-(R)-CH(CH2C(O)-CMe3)C(O)-Asp(cyPn)-γMeLeu-OH]
IC50 [2, 5]: 0.12 µM

CCC(CC)NC(=O)NC(C(=O)CC(CC(=O)C(C)(C)C)C(=O)NC(C(=O)NCC(C)(C)C)C(C)C(=O)O)C(C)(C)C [Et2CHNHC(O)-Tbg-CH2-(R)-CH(CH2C(O)-CMe3)C(O)-Asp{(R)-Me}-NHCH2CMe3]
IC50 [2, 5]: 0.2 µM

CCCC(CC)(CCC)NC(=O)N[C@H](C(=O)C[C@@H](CC(=O)C(C)(C)C)C(=O)N[C@H](C(=O)NCC(C)(C)C)C1(C(=O)O)CCCC1)C(C)(C)C [EtPr2CNHC(O) / NHCH2CMe3, EtPr2CNHC(O)-Tbg-CH2-(R)-CH(CH2C(O)CMe3)C(O)-Asp(cyPn)-NHCH2CMe3]
EC50 [1, 4]: 16 µM

CC(C)C(C(=O)NC(C(=O)CC(CC(=O)C(C)(C)C)C(=O)NC(C(=O)NCC(C)(C)C)C1(C(=O)O)CCCC1)C(C)(C)C)N(C)C(=O)CCc1ccccc1 [PhCH2CH2C(O)-(N-Me)Val-Tbg-CH2-(R)-CH(CH2C(O)CMe3)C(O)-Asp(cyPn)-NHCH2CMe3]
IC50 [2, 5]: 0.33 µM

CC(C)[C@@H](C(=O)N[C@H](C(=O)C[C@@H](CC(=O)C(C)(C)C)C(=O)N[C@H](C(=O)N[C@@H](CC(C)(C)C)C(N)=O)C1(C(=O)O)CCCC1)C(C)(C)C)N(C)C(=O)CCc1ccccc1 [PhCH2CH2C(O)-(N-Me)Val-Tbg-CH2-(R)-CH(CH2C(O)CMe3)C(O)-Asp(cyPn)-γMeLeu-NH2]
EC50 [1, 6]: 60 µM

CC(C)[C@@H](C(=O)N[C@H](C(=O)C[C@@H](CC(=O)C(C)(C)C)C(=O)N[C@H](C(=O)N[C@@H](CC(C)(C)C)C(=O)O)C1(C(=O)O)CCCC1)C(C)(C)C)N(C)C(=O)CCc1ccccc1 [PhCH2CH2C(O)-(N-Me)Val-Tbg-CH2-(R)-CH(CH2C(O)CMe3)C(O)-Asp(cyPn)-γMeLeu-OH]
EC50 [1, 6]: 65 µM

CC(C)C(C(=O)NC(C(=O)CC(CC(=O)C(C)(C)C)C(=O)NC(C(=O)NCC(C)(C)C)C(C)C(=O)O)C(C)(C)C)N(C)C(=O)CCc1ccccc1 [PhCH2CH2C(O)-(N-Me)Val-Tbg-CH2-(R)-CH(CH2C(O)CMe3)C(O)-Asp{(R)-Me}-NHCH2CMe3]
IC50 [2, 5]: 0.33 µM

CC(C)C(C(=O)NC(C(=O)CC(CC(=O)C1CCCC1)C(=O)NC(C(=O)NCC(C)(C)C)C1(C(=O)O)CCCC1)C(C)(C)C)N(C)C(=O)CCc1ccccc1 [PhCH2CH2C(O)-(N-Me)Val-Tbg-CH2-(R)-CH{CH2C(O)-(cyclopentyl)}C(O)-Asp-(cyPn)-NHCH2CMe3]
IC50 [2, 5]: 0.32 µM

CCCC(CCC)NC(=O)NC(C(=O)CC(CC(=O)C(C)(C)C)C(=O)NC(C(=O)NC1CCCCC1C)C1(C(=O)O)CCCC1)C(C)(C)C [Pr2CHNHC(O) / trans-NH-(2-methyl-cyclohexyl)] [Pr2CHNHC(O)-Tbg-CH2-(R)-CH(CH2C(O)CMe3)C(O)-Asp(cyPn)-trans-NH-(2-methyl-cyclohexyl)]
EC50 ([1]; Table IV, cell culture assay of example 11, read-out: EC50): 60 µM

CCCC(CCC)NC(=O)NC(C(=O)CC(CC(=O)C(C)(C)C)C(=O)NC(C(=O)NC(CC(C)(C)C)C(=O)O)C1(C(=O)O)CCCC1)C(C)(C)C [Pr2CHNHC(O)-Tbg-CH2-(R)-CH(CH2C(O)-CMe3)C(O)-Asp(cyPn)-γMeLeu-OH]
IC50 [2, 5]: 0.15 µM

CCCC(CCC)NC(=O)NC(C(=O)CC(CC(=O)C(C)(C)C)C(=O)NC(C(=O)NC1CCCCC1C)C1(C(=O)O)CCCC1)C(C)(C)C [Pr2CHNHC(O)-Tbg-CH2-(R)-CH(CH2C(O)CMe3)C(O)-Asp(cyPn)-trans-NH-(2-methyl-cyclohexyl)]
IC50 ([2]; Table IV, assay of example 10): 0.69 µM

CCCC(CCC)NC(=O)N[C@H](C(=O)C[C@@H](CC(=O)C1CCCC1)C(=O)N[C@H](C(=O)NCC(C)(C)C)C1(C(=O)O)CCCC1)C(C)(C)C [Pr2CHNHC(O)-Tbg-CH2-(R)-CH{CH2C(O)(cyclopentyl)}C(O)-Asp(cyPn)-NHCH2CMe3]
EC50 [1, 3]: 30 µM

CC(C)[C@@H](C(=O)N[C@H](C(=O)C[C@@H](CC(=O)C(C)(C)C)C(=O)N[C@H](C(=O)N[C@H](CO)CC(C)(C)C)C1(C(=O)O)CCCC1)C(C)(C)C)N(C)C(=O)CCc1ccccc1 [Title Compound of Example 6, PhCH2CH2C(O)-(N-Me)Val-Tbg-CH2(R)-CH(CH2C(O)CMe3)C(O)-Asp(cyPn)-γMeLeucinol]
EC50 ([1]; Human alphaherpesvirus 2, BHK21 (C13)): 19 µM
EC50 [1, 6]: 15 µM

CCC(CC)NC(=O)NC(C(=O)CC(CC(=O)C(C)(C)C)C(=O)NC(C(=O)NC(CO)CC(C)(C)C)C1(C(=O)O)CCCC1)C(C)(C)C [Title Compound of Example 7, Et2CHNHC(O)-Tbg-CH2-(R)-CH(CH2C(O)CMe3)CO-Asp(cyPn)-γMeLeucinol]
IC50 [2, 5]: 0.15 µM

Nc1nc2c(ncn2COCCO)c(=O)[nH]1 [acyclovir, reference compound]
EC50 ([1]; Human alphaherpesvirus 2, BHK21 (C13), Table III, agent alone, BHK-21/C13 cells, HSV-2 strain HG-52, read-out: EC50): 3.5 µM
action of the combination of acyclovir and the peptide of formula 1 ([1]; combination of acyclovir with the title peptide of example 6, EC50's lower than acyclovir alone, isobole method, Figure 1): synergistic action

Pr2CHNHC(O)-Tbg-CH2-(R)-CH-(CH2C(O)CH2CMe3)C(O)-Asp(cyPn)-Leu-OH
EC50 ([1]; Table V, cell culture assay of example 11, read-out: EC50): 80 µM
